Measured values from US20240408106A1, “BI-FUNCTIONAL COMPOUNDS AND METHODS FOR TARGETED UBIQUITINATION OF ANDROGEN RECEPTOR” (MONTELINO THERAPEUTICS, INC., priority 2021, published 2024).

Each molecule was assayed on human prostate cancer cell line, 22Rv1-Enz^R (assay: 22Rv1-Enz^R cell proliferation assay). Settings: half maximal growth inhibition constant, 22Rv1-Enz^R cells, 6-day culture with cell media changed every 24 hours, read-out: 22Rv1-Enz^R proliferation assay GIC50.
Type: cell-based
Experimental: The human prostate cancer cell line, 22Rv1 has been reported to express a high level of AR-V7. According to one procedure, 22Rv1 is seeded at 50,000 cells/well on a 24-well plate in quadruplicate and treated with test compounds in concentrations ranging up to 20 μM for four days. Standard culture media is RPMI-1640 supplemented with 10% fetal bovine serum. The test compound initially is dissolved in DMSO at 50 mM. This stock solution is then diluted as needed for the indicated concentrations. At the end of the four-day period, cells are harvested using 1% trypsin and counted using an automated cell counter.
Selected compounds may be tested in the human prostate cancer cell line, 22Rv1-Enz^R, as described in Geun Taek Lee et al., Molecular Cancer Therapeutics, 20:490-9 (2021). These procedures are similar to that described in Experimental Example 1, above, except that the assay conditions are a 6-day culture with cell media changed every 24 hours.
In the following Table (half maximal growth inhibition constant, GIC50): (+)-GIC50<200 μM; (++)-GIC50<100 μM; (+++)-GIC50<10 μM.

`COc1cc(C(=O)NCC2CCN(C(=O)COc3c(-c4csc(N5CCOCC5)n4)ccc(F)c3F)CC2)ccc1NC(=O)[C@@H]1N[C@@H](CC(C)(C)C)[C@](C#N)(c2ccc(Cl)cc2F)[C@H]1c1cccc(Cl)c1F` [Example 7, (2R,3S,4R,5S)-3-(3-chloro-2-fluorophenyl)-4-(4-chloro-2-fluorophenyl)-4-cyano-N-(4-(((1-(2-(2,3-difluoro-6-(2-morpholinothiazol-4-yl)phenoxy)acetyl)piperidin-4-yl)methyl)carbamoyl)-2-methoxyphenyl)-5-neopentylpyrrolidine-2-carboxamide] and `COc1cc(C(=O)NCCN2CCN(C(=O)COc3c(-c4csc(N5CCOCC5)n4)ccc(F)c3F)CC2)ccc1NC(=O)[C@@H]1N[C@@H](CC(C)(C)C)[C@](C#N)(c2ccc(Cl)cc2F)[C@H]1c1cccc(Cl)c1F` [Example 8, (2R,3S,4R,5S)-3-(3-chloro-2-fluorophenyl)-4-(4-chloro-2-fluorophenyl)-4-cyano-N-(4-((2-(4-(2-(2,3-difluoro-6-(2-morpholinothiazol-4-yl)phenoxy)acetyl)piperazin-1-yl)ethyl)carbamoyl)-2-methoxyphenyl)-5-neopentylpyrrolidine-2-carboxamide] cannot be ordered by IC50: less than 200 µM for the first, less than 100 µM for the second.

`Cc1ncsc1-c1ccc([C@H](C)NC(=O)[C@@H]2C[C@@H](O)CN2C(=O)[C@@H](NC(=O)CCC(=O)N2CCCC(NC(=O)COc3c(-c4csc(N5CCOCC5)n4)ccc(F)c3F)C2)C(C)(C)C)cc1` (stereo partly drawn) [Example 3, (2S,4R)-1-((2S)-2-(4-(3-(2-(2,3-difluoro-6-(2-morpholinothiazol-4-yl)phenoxy)acetamido)piperidin-1-yl)-4-oxobutanamido)-3,3-dimethylbutanoyl)-4-hydroxy-N-((S)-1-(4-(4-methylthiazol-5-yl)phenyl)ethyl)pyrrolidine-2-carboxamide] and `Cc1ncsc1-c1ccc([C@H](C)NC(=O)[C@@H]2C[C@@H](O)CN2C(=O)[C@@H](NC(=O)CCC(=O)N[C@H]2C[C@H](Oc3c(-c4csc(N5CCOCC5)n4)ccc(F)c3F)C2)C(C)(C)C)cc1` [Example 5, N1-((1r,3S)-3-(2,3-difluoro-6-(2-morpholinothiazol-4-yl)phenoxy)cyclobutyl)-N4-((S)-1-((2S,4R)-4-hydroxy-2-(((S)-1-(4-(4-methylthiazol-5-yl)phenyl)ethyl)carbamoyl)pyrrolidin-1-yl)-3,3-dimethyl-1-oxobutan-2-yl)succinamide] cannot be ordered by IC50: less than 10 µM for the first, less than 100 µM for the second.

`Cc1ncsc1-c1ccc([C@H](C)NC(=O)[C@@H]2C[C@@H](O)CN2C(=O)[C@@H](NC(=O)CCN2CCN(C(=O)COc3c(-c4csc(N5CCOCC5)n4)ccc(F)c3F)CC2)C(C)(C)C)cc1` [Example 2, (2S,4R)-1-((S)-2-(3-(4-(2-(2,3-difluoro-6-(2-morpholinothiazol-4-yl)phenoxy)acetyl)piperazin-1-yl)propanamido)-3,3-dimethylbutanoyl)-4-hydroxy-N-((S)-1-(4-(4-methylthiazol-5-yl)phenyl)ethyl) pyrrolidine-2-carboxamide] and `Cc1ncsc1-c1ccc([C@H](C)NC(=O)[C@@H]2C[C@@H](O)CN2C(=O)[C@@H](NC(=O)CN2CCN(C(=O)COc3c(-c4csc(N5CCOCC5)n4)ccc(F)c3F)CC2)C(C)(C)C)cc1` [Example 1, (2S,4R)-1-((S)-2-(2-(4-(2-(2,3-difluoro-6-(2-morpholinothiazol-4-yl)phenoxy)acetyl)piperazin-1-yl)acetamido)-3,3-dimethylbutanoyl)-4-hydroxy-N-((S)-1-(4-(4-methylthiazol-5-yl)phenyl)ethyl)pyrrolidine-2-carboxamide] cannot be ordered by IC50: less than 100 µM for the first, less than 10 µM for the second.

`Cc1ncsc1-c1ccc([C@H](C)NC(=O)[C@@H]2C[C@@H](O)CN2C(=O)[C@@H](NC(=O)CCCCn2nncc2CCOc2c(-c3csc(N4CCOCC4)n3)ccc(F)c2F)C(C)(C)C)cc1` [Example 4, (2S,4R)-1-((S)-2-(5-(5-(2-(2,3-difluoro-6-(2-morpholinothiazol-4-yl)phenoxy)ethyl)-1H-1,2,3-triazol-1-yl)pentanamido)-3,3-dimethylbutanoyl)-4-hydroxy-N-((S)-1-(4-(4-methylthiazol-5-yl)phenyl)ethyl)pyrrolidine-2-carboxamide] and `COc1cc(C(=O)NCCOCCn2cc(CCOc3c(-c4csc(N5CCOCC5)n4)ccc(F)c3F)nn2)ccc1NC(=O)[C@@H]1N[C@@H](CC(C)(C)C)[C@](C#N)(c2ccc(Cl)cc2F)[C@H]1c1cccc(Cl)c1F` [Example 10, (2R,3S,4R,5S)-3-(3-chloro-2-fluorophenyl)-4-(4-chloro-2-fluorophenyl)-4-cyano-N-(4-((2-(2-(4-(2-(2,3-difluoro-6-(2-morpholinothiazol-4-yl)phenoxy)ethyl)-1H-1,2,3-triazol-1-yl)ethoxy)ethyl)carbamoyl)-2-methoxyphenyl)-5-neopentylpyrrolidine-2-carboxamide] cannot be ordered by IC50: less than 10 µM for the first, less than 100 µM for the second.

For `COc1cc(C(=O)N2CCC(NC(=O)COc3c(-c4csc(N5CCOCC5)n4)ccc(F)c3F)CC2)ccc1NC(=O)[C@@H]1N[C@@H](CC(C)(C)C)[C@](C#N)(c2ccc(Cl)cc2F)[C@H]1c1cccc(Cl)c1F` [Example 9, (2R,3S,4R,5S)-3-(3-chloro-2-fluorophenyl)-4-(4-chloro-2-fluorophenyl)-4-cyano-N-(4-(4-(2-(2,3-difluoro-6-(2-morpholinothiazol-4-yl)phenoxy)acetamido)piperidine-1-carbonyl)-2-methoxyphenyl)-5-neopentylpyrrolidine-2-carboxamide], the IC50 was less than 200 µM.
